Data taken from patent US12564584B2, “Amorphous cabozantinib particles and uses thereof” (Flex Pharma, LLC, priority 2020, dated 2026).

Tests used:
[1] = cited from earlier work
[2] = Water content by Karl Fischer coulometric titration; format: physicochemical; conditions: after preparation
Protocol: Water content was determined by Karl Fischer coulometric titration method, using a Mettler Toledo C30S Karl Fischer with Stromboli Oven Sampler. Approximately 40-50 mg of ASD powder was weighed into a glass Stromboli sample vial and the vial was immediately sealed with a foil coated vial cover, and a rubber vial cap cover was placed on top of the sample vial. The vial was then placed onto instrument and analysis was conducted using nitrogen carrier gas. Instrument details and measurement conditions are specified in Table 4.

[3] = Total related substances by HPLC; format: physicochemical
Protocol: (§1) Total related substances was determined by HPLC using a Waters Acquity H-Class UPLC instrument utilizing a Waters Acquity BEH C18, 2.1×50 mm, 1.7 μm column. Sample solutions of each ASD were prepared by accurately weighing ASD powder into a volumetric flask, and diluted in 1:1:1 methanol:ethanol:water. The final concentration of the analyte (cabozantinib) in the sample was approximately 0.2 mg/ml.
Individual related substances were calculated as peak area percent. Total related substances is calculated as the sum of all detected individual related substances.
(§2) Assay values and total related substances were determined for the ASDs after preparation (t=0) and at the designated stability timepoints using an appropriate HPLC method (as described in Example 1). The reported assay values have been corrected for water content (determined by Karl Fischer coulometric titration method).

[4] = Assay by HPLC (corrected for water content); format: physicochemical
Protocol: as §1, §2

[5] = cited from earlier work; remark: listed apart in the source
[6] = system: MET, VEGFR-1, -2 and -3, AXL, RET, ROS1, TYRO3, MER, KIT, TRKB, FLT-3, and TIE-2; conditions: FLT-3, TIE-2; cited from earlier work

SMILES | solubility in aqueous media [1] | Water Content (% water) [2] | Total Related Substances ([3]; 40° C./protected, 1 month) | Total Related Substances ([3]; 40° C./protected, 2 months) | Total Related Substances ([3]; 40° C./protected, 3 months) | Total Related Substances (% Area) ([3]; after preparation) | Total Related Substances ([3]; t = 0) | Assay ([4]; 40° C./protected, 1 month) | Assay ([4]; 40° C./protected, 2 months) | Assay ([4]; 40° C./protected, 3 months) | Assay ([4]; t = 0) | protein bound in human plasma [5] | inhibition of tyrosine kinase activity [6]
COc1cc2nccc(Oc3ccc(NC(=O)C4(C(=O)Nc5ccc(F)cc5)CC4)cc3)c2cc1OC.O=C(O)C[C@H](O)C(=O)O [Cabozantinib (S)-malate salt] | practically insoluble |  |  |  |  |  |  |  |  |  |  |  | 
COc1cc2nccc(Oc3ccc(NC(=O)C4(C(=O)Nc5ccc(F)cc5)CC4)cc3)c2cc1OC.O=C(O)C[C@H](O)C(=O)O [Cabozantinib (free base), N-(4-(6,7-dimethoxyquinolin-4-yloxy)phenyl)-N′-(4-fluorophenyl)cyclopropane-1,1-dicarboxamide, (2S)-hydroxybutanedioate] |  | 0.75 % water | 0.52% | 0.44% | 0.38% | 0.44 % Area | 0.44% | 99.9% | 99.6% | 99.0% | 99.2% | ≥ 99.7% | inhibits
